From patent publication US20240409581A1, “SMALL-MOLECULE PEPTIDE AND USE THEREOF AGAINST METABOLIC-[…] LIVER DISEASE AND FOR REDUCING BODY WEIGHT” (Tunghai University, priority 2023, published 2024)

Legend:
Assay type in all cases: in vivo, C57BL/6JNarl mice (male)
[1] = tested on: MAFLD-mode mice (diet with 60% kcal fat+30% v/v fructose corn syrup); test: Animal test: body, liver, spleen and white adipose tissue weights of MAFLD-mode mice; settings: for Epididymal white adipose tissue / Final body weight / Liver weight / Mesenteric white adipose tissue / Perirenal white adipose tissue / Spleen weight: eight weeks, high-fat/fructose diet; for Initial body weight: before the eight-week test
Description: (§1) 100 five-week-old C57BL/6JNarl mice (male) were raised in an environment whose temperature was 22-25° C., whose relative humidity was 45%-60%, and which adopted a 12-hour light/12-hour darkness cycle. The mice were fed with common feed and water for three weeks and then randomly divided into 10 groups, whose subsequent treatments are as follows:
Group 1: This was the blank group. The mice in this group were fed with common animal feed and distilled water.
Group 2: This was the control group. The mice in this group were fed with a diet with 60% kcal fat+30% v/v fructose corn syrup (and a 0.5% carboxymethyl cellulose (CMC) solution) and thereby induced to develop into MAFLD-mode mice.
Group 3: This was the low-dosage YF dipeptide group. The mice in this group were fed with the Tyr-Phe dipeptide at a dose of 10 mg/kg/day, in addition to a diet with 60% kcal fat+30% v/v fructose corn syrup.
Group 4: This was the high-dosage YF dipeptide group. The mice in this group were fed with the Tyr-Phe dipeptide at a dose of 50 mg/kg/day, in addition to a diet with 60% kcal fat+30% v/v fructose corn syrup.
Group 5: This was the low-dosage FY dipeptide group. The mice in this group were fed with the Phe-Tyr dipeptide at a dose of 10 mg/kg/day, in addition to a diet with 60% kcal fat+30% v/v fructose corn syrup.
Group 6: This was the high-dosage FY dipeptide group. The mice in this group were fed with the Phe-Tyr dipeptide at a dose of 50 mg/kg/day, in addition to a diet with 60% kcal fat+30% v/v fructose corn syrup.
Group 7: This was the low-dosage EWYF tetrapeptide group. The mice in this group were fed with the Glu-Trp-Tyr-Phe tetrapeptide (which has the sequence of SEQ ID No.: 1) at a dose of 10 mg/kg/day, in addition to a diet with 60% kcal fat+30% v/v fructose corn syrup.
Group 8: This was the high-dosage EWYF tetrapeptide group. The mice in this group were fed with the Glu-Trp-Tyr-Phe tetrapeptide (which has the sequence of SEQ ID No.: 1) at a dose of 50 mg/kg/day, in addition to a diet with 60% kcal fat+30% v/v fructose corn syrup.
Group 9: This was the low-dosage EWFY tetrapeptide group. The mice in this group were fed with the Glu-Trp-Phe-Tyr tetrapeptide (which has the sequence of SEQ ID No.: 2) at a dose of 10 mg/kg/day, in addition to a diet with 60% kcal fat+30% v/v fructose corn syrup.
Group 10: This was the high-dosage EWFY tetrapeptide group. The mice in this group were fed with the Glu-Trp-Phe-Tyr tetrapeptide (which has the sequence of SEQ ID No.: 2) at a dose of 50 mg/kg/day, in addition to a diet with 60% kcal fat+30% v/v fructose corn syrup.
(§2) Each of the four peptides was mixed with 0.5% Carboxymethyl Cellulose (CMC) to form a peptide solution, before the peptide solution was fed into the stomach of each mouse in the corresponding group with a syringe.
(§3) The test lasted eight weeks. The body weights of, and the amounts of food consumed by, the mice in each group were measured and recorded each week. The mice were sacrificed at the end of the test, and the livers, spleens, and white adipose tissue of the mice in each group were weighed.

[2] = tested on: MAFLD-mode mice (diet with 60% kcal fat+30% v/v fructose corn syrup); test: Biochemical analysis of blood (sALT and serum lipid indices) of MAFLD-mode mice; settings: eight weeks
Description: as §1, §2, §3
After the test of example 1, blood samples were taken from the mice in each group, and the serum alanine transaminase (sALT), serum triglyceride (sTG), serum total cholesterol (sTC), serum free fatty acid (sFFA), and serum very-low-density lipoprotein (sVLDL) levels of the blood samples were measured.

[3] = tested on: MAFLD-mode mice (diet with 60% kcal fat+30% v/v fructose corn syrup); test: Analysis of the hepatic lipid content (enzymatic colorimetric method) of MAFLD-mode mice; settings: eight weeks, liver; for hVLDL (hepatic very-low-density lipoprotein): calculated as 1/5 of the hepatic triglyceride level;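 on hTC (hepatic total cholesterol): reported in mg/dL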;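 on hTG (hepatic triglyceride): reported in mg/dL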;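 on hVLDL (hepatic very-low-density lipoprotein): reported in mg/dL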
Description: as §1, §2, §3
After the test of example 1, the mice in each group were sacrificed, and the livers of the mice were collected in order to measure the hepatic lipid content of the liver of each mouse by an enzymatic colorimetric method. The items measured were hepatic triglyceride (hTG), hepatic total cholesterol (hTC), hepatic free fatty acid (hFFA), and hepatic very-low-density lipoprotein (hVLDL), wherein the hVLDL level was calculated as ⅕ of the hepatic triglyceride level.

Tyr-Phe [YF]
Epididymal white adipose tissue ([1]; 10 mg/kg/day into the stomach): 1.452 ± 0.433 g
Final body weight ([1]; 10 mg/kg/day into the stomach): 30.22 ± 2.07 g
Liver weight ([1]; 10 mg/kg/day into the stomach): 0.996 ± 0.094 g
Mesenteric white adipose tissue ([1]; 10 mg/kg/day into the stomach): 0.298 ± 0.088 g
Perirenal white adipose tissue ([1]; 10 mg/kg/day into the stomach): 0.526 ± 0.069 g
Spleen weight ([1]; 10 mg/kg/day into the stomach): 59.9 ± 8.2 mg
Epididymal white adipose tissue ([1]; 50 mg/kg/day into the stomach): 1.182 ± 0.265 g
Final body weight ([1]; 50 mg/kg/day into the stomach): 28.98 ± 1.76 g
Liver weight ([1]; 50 mg/kg/day into the stomach): 0.982 ± 0.085 g
Mesenteric white adipose tissue ([1]; 50 mg/kg/day into the stomach): 0.251 ± 0.056 g
Perirenal white adipose tissue ([1]; 50 mg/kg/day into the stomach): 0.481 ± 0.080 g
Spleen weight ([1]; 50 mg/kg/day into the stomach): 53.8 ± 6.4 mg
Initial body weight ([1]; baseline of the 10 mg/kg/day group): 22.82 ± 1.01 g
Initial body weight ([1]; baseline of the 50 mg/kg/day group): 22.84 ± 1.25 g
sALT (serum alanine transaminase) ([2]; 10 mg/kg/day): 44.4 ± 15.09 IU/L
sFFA (serum free fatty acid) ([2]; 10 mg/kg/day): 0.932 ± 0.336 mEq/L
sTC (serum total cholesterol) ([2]; 10 mg/kg/day): 155.01 ± 25.12 mg/dL
sTG (serum triglyceride) ([2]; 10 mg/kg/day): 103.38 ± 22.62 mg/dL
sVLDL (serum very-low-density lipoprotein) ([2]; 10 mg/kg/day): 20.68 ± 4.52 mg/dL
sALT (serum alanine transaminase) ([2]; 50 mg/kg/day): 36.3 ± 15.97 IU/L
sFFA (serum free fatty acid) ([2]; 50 mg/kg/day): 0.813 ± 0.243 mEq/L
sTC (serum total cholesterol) ([2]; 50 mg/kg/day): 140.70 ± 22.66 mg/dL
sTG (serum triglyceride) ([2]; 50 mg/kg/day): 95.19 ± 24.70 mg/dL
sVLDL (serum very-low-density lipoprotein) ([2]; 50 mg/kg/day): 19.04 ± 4.94 mg/dL
hFFA (hepatic free fatty acid) ([3]; 10 mg/kg/day): 110.93 ± 21.96 mEq/L
hTC (hepatic total cholesterol) ([3]; 10 mg/kg/day): 11.22 ± 1.23 mg/dL
hTG (hepatic triglyceride) ([3]; 10 mg/kg/day): 41.81 ± 8.32 mg/dL
hVLDL (hepatic very-low-density lipoprotein) ([3]; 10 mg/kg/day): 8.36 ± 1.66 mg/dL
hFFA (hepatic free fatty acid) ([3]; 50 mg/kg/day): 98.90 ± 24.07 mEq/L
hTC (hepatic total cholesterol) ([3]; 50 mg/kg/day): 9.76 ± 1.45 mg/dL
hTG (hepatic triglyceride) ([3]; 50 mg/kg/day): 36.95 ± 8.33 mg/dL
hVLDL (hepatic very-low-density lipoprotein) ([3]; 50 mg/kg/day): 7.39 ± 1.67 mg/dL
